Experimental data taken from ChEMBL document CHEMBL4265917, “Antibacterial and antioxidant activities for natural and synthetic dual-active compounds” (Eur J Med Chem, 2018).
≈ marks a conversion by molar mass, not a printed value.

Columns and labels:
[1] = system: Staphylococcus aureus; assay: Antibacterial activity against methicillin-resistant Staphylococcus aureus after 24 hrs by microbroth dilution method; format: functional
[2] = Antioxidant activity assessed as DPPH free radical scavenging activity incubated for 30 mins in dark condition; format: functional
[3] = system: Staphylococcus aureus; assay: Antibacterial activity against Staphylococcus aureus after 17 hrs by NCCLS broth microdilution method; format: functional
[4] = system: Bacillus cereus; assay: Antibacterial activity against Bacillus cereus after 17 hrs by NCCLS broth microdilution method; format: functional
[5] = system: Bacillus subtilis; assay: Antibacterial activity against Bacillus subtilis after 17 hrs by NCCLS broth microdilution method; format: functional
[6] = system: Listeria monocytogenes; assay: Antibacterial activity against Listeria monocytogenes after 17 hrs by NCCLS broth microdilution method; format: functional
[7] = system: Escherichia coli; assay: Antibacterial activity against Escherichia coli after 17 hrs by NCCLS broth microdilution method; format: functional
[8] = system: Salmonella typhimurium; assay: Antibacterial activity against Salmonella typhimurium after 17 hrs by NCCLS broth microdilution method; format: functional, Salmonella enterica subsp. enterica serovar Typhimurium; conditions: Salmonella enterica
[9] = system: Vibrio cholerae; assay: Antibacterial activity against Vibrio cholerae after 17 hrs by NCCLS broth microdilution method; format: functional
[10] = system: Campylobacter jejuni; assay: Antibacterial activity against Campylobacter jejuni after 17 hrs by NCCLS broth microdilution method; format: functional
[11] = system: Campylobacter coli; assay: Antibacterial activity against Campylobacter coli after 17 hrs by NCCLS broth microdilution method; format: functional
[12] = system: Aliarcobacter butzleri; assay: Antibacterial activity against Arcobacter butzleri after 17 hrs by NCCLS broth microdilution method; format: functional
[13] = system: Aliarcobacter cryaerophilus; assay: Antibacterial activity against Arcobacter cryaerophilus after 17 hrs by NCCLS broth microdilution method; format: functional
[14] = Antioxidant activity assessed as trolox equivalent of AAPH-induced radical scavenging activity preincubated for 30 mins followed by […] challenge measured every 1.14 mins for 120 mins by ORAC-FL assay; format: functional
[15] = Antioxidant activity assessed as ABTS radical scavenging activity by measuring trolox equivalence of antioxidant capacity at 1 uM up to 24 hrs by spectrophotometric analysis; format: functional
[16] = Antioxidant activity assessed as reduction of Fe3+-TPTZ to Fe2+-TPTZ by measuring trolox equivalence of antioxidant capacity by FRAP assay; format: functional
[17] = system: Staphylococcus aureus; assay: Antibiofilm activity against methicillin-resistant Staphylococcus aureus at 100 ug/ml after 18 hrs by crystal violet staining-based method relative to control; format: functional
[18] = system: Staphylococcus aureus; assay: Antibiofilm activity against methicillin-resistant Staphylococcus aureus at 150 ug/ml after 18 hrs by crystal violet staining-based method relative to control; format: functional
[19] = system: Escherichia coli; assay: Antibacterial activity against Escherichia coli after 16 hrs by broth microdilution method; format: functional
[20] = system: Staphylococcus aureus; assay: Antibacterial activity against Staphylococcus aureus after 16 hrs by broth microdilution method; format: functional
[21] = system: Escherichia coli; assay: Antibacterial activity against Escherichia coli after 18 hrs by CLSI broth microdilution method; format: functional
[22] = system: Staphylococcus aureus; assay: Antibacterial activity against Staphylococcus aureus after 18 hrs by CLSI broth microdilution method; format: functional
[23] = Antioxidant activity assessed as DPPH free radical scavenging activity incubated for 30 min by UV-vis spectrophotometric analysis; format: functional
[24] = system: Escherichia coli; assay: Antibacterial activity against Escherichia coli KCTC 1924 after 20 to 36 hrs by disc diffusion method; format: functional
[25] = system: Staphylococcus aureus; assay: Antibacterial activity against Staphylococcus aureus KCTC 1916 after 20 to 36 hrs by disc diffusion method; format: functional
[26] = Antioxidant activity assessed as DPPH free radical scavenging activity; format: functional
[27] = system: Staphylococcus aureus; assay: Antibacterial activity against methicillin-resistant Staphylococcus aureus; format: functional
[28] = system: Staphylococcus aureus; assay: Antibacterial activity against Staphylococcus aureus ATCC 6538 by agar diffusion method; format: functional
[29] = system: Escherichia coli; assay: Antibacterial activity against Escherichia coli ATCC 10536 by agar diffusion method; format: functional
[30] = Antioxidant activity assessed as BTH equivalent of DPPH-induced radical scavenging activity; format: functional
[31] = system: Bacillus subtilis; assay: Antibacterial activity against Bacillus subtilis ATCC 11562 by colorimetric based broth dilution method; format: functional, organism-based
[32] = system: Pseudomonas amygdali pv. lachrymans; assay: Antibacterial activity against Pseudomonas syringae pv. lachrymans ATCC 11921 by colorimetric based broth dilution method; format: functional, organism-based

## COc1cc(/C=C/c2cc(/C=C/c3ccc(OCC(=O)N[C@@H](C)c4ccccc4)c(OC)c3)[nH]n2)ccc1OCC(=O)N[C@@H](C)c1ccccc1
[1]
  MIC: 10 to 20 µg/mL (≈ 14.6 to 29.1 µM)

## COc1cc(/C=C/c2cc(/C=C/c3ccc(OCC(=O)Nc4ccc(F)cc4)c(OC)c3)[nH]n2)ccc1OCC(=O)Nc1ccc(F)cc1
[1]
  MIC: 10 to 20 µg/mL (≈ 15 to 30 µM)

## Cc1c(-c2cc(-c3ccc(F)cc3)nc(N)n2)nnn1-c1ccc(Cl)c(Cl)c1
[2]
  IC50: 59.07 µg/mL (≈ 142 µM)

## COc1cc(/C=C/c2cc(/C=C/c3ccc(OCC(=O)NCc4ccccc4)c(OC)c3)[nH]n2)ccc1OCC(=O)NCc1ccccc1
[1]
  MIC: 10 to 20 µg/mL (≈ 15.2 to 30.4 µM)

## Oc1ccc(/C=C/c2cc(O)cc(O)c2)cc1 [RESVERATROL]
[3]
  MIC: 16.5 to 260 µg/mL (≈ 72.3 to 1140 µM)
[4]
  MIC: 16.5 to 260 µg/mL (≈ 72.3 to 1140 µM)
[5]
  MIC: 16.5 to 260 µg/mL (≈ 72.3 to 1140 µM)
[6]
  MIC: 16.5 to 260 µg/mL (≈ 72.3 to 1140 µM)
[7]
  MIC: 0.625 to 521 µg/mL (≈ 2.74 to 2280 µM)
[8]
  MIC: 0.625 to 521 µg/mL (≈ 2.74 to 2280 µM)
[9]
  MIC: 0.625 to 521 µg/mL (≈ 2.74 to 2280 µM)
[10]
  MIC: 0.625 to 521 µg/mL (≈ 2.74 to 2280 µM)
[11]
  MIC: 0.625 to 521 µg/mL (≈ 2.74 to 2280 µM)
[12]
  MIC: 0.625 to 521 µg/mL (≈ 2.74 to 2280 µM)
[13]
  MIC: 0.625 to 521 µg/mL (≈ 2.74 to 2280 µM)
[14]
  Activity: 3.67 mM
[15]
  Activity: 1.57 mM
[16]
  Activity: 0.47 mM
[17]
  inhibition at 100 µg/mL: 39.9%
[18]
  inhibition at 150 µg/mL: 23.4%

## Cc1ccc(C(C)C)cc1O [CARVACROL]
[19]
  MIC: 2.5 µg/mL (≈ 16.6 µM)
[20]
  MIC: 1.25 µg/mL (≈ 8.32 µM)

## Cc1c(O)cc(CCCCCCCCCC[P+](c2ccccc2)(c2ccccc2)c2ccccc2)c(O)c1C
[21]
  MIC: 0.6 to 19 µg/mL
[22]
  MIC: 0.6 µg/mL

## COc1cc(/C=C/c2cc(/C=C/c3ccc(OCC(=O)Nc4cccc(C(C)=O)c4)c(OC)c3)[nH]n2)ccc1OCC(=O)Nc1cccc(C(C)=O)c1
[1]
  MIC: 10 to 20 µg/mL (≈ 14 to 28 µM)

## COc1cc(/C=C/c2cc(/C=C/c3ccc(OCC(=O)N[C@H](C)c4ccccc4)c(OC)c3)[nH]n2)ccc1OCC(=O)N[C@H](C)c1ccccc1
[1]
  MIC: 10 to 20 µg/mL (≈ 14.6 to 29.1 µM)

## COc1cc(/C=C/c2cc(/C=C/c3ccc(OCC(=O)Nc4ccccc4)c(OC)c3)[nH]n2)ccc1OCC(=O)Nc1ccccc1
[1]
  MIC: 10 to 20 µg/mL (≈ 15.9 to 31.7 µM)

## Oc1ccc2cc(Br)ccc2c1-c1c[nH]c2ccccc12
[23]
  EC50: 3.8 µg/mL (≈ 11.2 µM)
[24]
  MIC: 5.32 µg/mL (≈ 15.7 µM)
[25]
  MIC: 14.8 µg/mL (≈ 43.8 µM)

## COc1cc(/C=C/C(=O)CC(=O)/C=C/c2ccc(O)c(OC)c2)ccc1O [CURCUMIN]
[26]
  IC50: 28 µg/mL (≈ 76 µM)
[27]
  MIC: 125 to 250 µg/mL (≈ 339 to 679 µM)

## COc1cc(/C=C/c2cc(/C=C/c3ccc(OCC(=O)Nc4ccc(C)cc4)c(OC)c3)[nH]n2)ccc1OCC(=O)Nc1ccc(C)cc1
[1]
  MIC: 10 to 20 µg/mL (≈ 15.2 to 30.4 µM)

## O=C(CCc1ccc(O)cc1)c1c(O)cc(O)cc1O [PHLORETIN]
[28]
  MIC: 100 µg/mL (≈ 365 µM)
[29]
  MIC: 250 µg/mL (≈ 912 µM)
[30]
  Activity: 1.27 mg.equiv

## COc1cc(/C=C/c2cc(/C=C/c3ccc(OCC(=O)Nc4cccc(C(F)(F)F)c4)c(OC)c3)[nH]n2)ccc1OCC(=O)Nc1cccc(C(F)(F)F)c1
[1]
  MIC: 10 to 20 µg/mL (≈ 13 to 26.1 µM)

## COc1cc(O)c2c(=O)oc3c(O)c(O)cc(C)c3c2c1
[2]
  EC50: 68.3 µM
[31]
  IC50: 29 µM
[32]
  IC50: 7 µM
